The results in this text go back to ChEMBL document CHEMBL1201862, “PubChem BioAssay data set” (2004).

Calls of active or inactive are those of the source.

A short description of test [1]: Luminescence Cell-Based Dose Response HTS to Identify Activators of Luciferase Translation or Activity in H4 […] Cells. [Related pubchem assays: 1829 (Project Summary), 1814 (Primary HTS)]. It counts as functional.
The nature of test [2]: Vero cell cytotoxicity, dose response, cytotoxicity control for Vif-APOBEC3G degradation inhibitor project, Vero cells (AID 1117358). It counts as functional. The conditions noted are these: Human immunodeficiency virus 1, Vero.
A short description of test [3]: MC4R antagonists, dose response, counter-screen for LGR2 antagonist project, cell-based, plate reader, cherry pick (AID 743444).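 Also: transfected HEK 293 cells stimulated with alpha-MSH peptide; potency of inhibitors of the alpha-MSH evoked signal.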 It counts as functional.
For test [4], the system named is HEK293. Kind of test: inhibitors of LMP1-driven NF-kB reporter, dose response, cell-based, HEK293, luciferase, cherry-pick (AID 588343). The note with it: Homo sapiens. Type of test: functional.
Test [5] can be described thus: A549 cell cytotoxicity, dose response, cytotoxicity control, plate reader, cherry-pick, antagonist series (AID 743412). It counts as functional, cell-based.
A short description of test [6]: HepG2 cell cytotoxicity, dose response, cytotoxicity control, plate reader, cherry-pick, antagonist series (AID 743416). Type of test: functional, cell-based.
Test [7] can be described thus: LGR2 antagonists, dose response, cell-based, HEK293, CRE-luciferase reporter, cherry pick, set 2 (AID 743343).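 Also: transfected cells were stimulated with diluted bursicon conditioned medium after compound addition.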 Type of test: functional.
Test [8] concerns the target Oxysterols receptor LXR-beta (Homo sapiens, UniProt P55055). It counts as functional, cell-based.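 Also: Cell-based luminescence dose-response assay of agonist activity at LXR, run as a confirmatory counterscreen to a daf-12 agonist screen; HEK293 cells with Gal4-LXR fusion and GAL4-driven luciferase reporter; agonist potency from rising luciferase signal of a Gal4-LXR reporter.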
Test [9] in a line: Luminescence Cell-Based Dose Response HTS to Identify Inhibitors of 5'UTR Stem-Loop Driven Prion Protein mRNA Translation in H4 Neuroglioblastoma Cells. [Related pubchem assays: 1827 (Project Summary), 1813 (Primary HTS)]. It counts as functional.
The nature of test [10]: HEK293 cell cytotoxicity, dose response, cytotoxicity control, plate reader, cherry-picked samples (AID 743446). It counts as functional, cell-based.
The nature of test [11]: inhibitors of SNCA 5'UTR-driven reporter translation, confirmation, H4 neuroglioma cells, luminescence (AID 1988). Type of test: functional, cell-based.
The target in another test is fMet-Leu-Phe receptor (Homo sapiens, UniProt P21462). Kind of test: FPR ligands, dose response (AID 519). It counts as functional.
Test [12] concerns the target NAD-dependent protein deacylase sirtuin-5, mitochondrial (Homo sapiens, UniProt Q9NXA8). The test can be described thus: SIRT5 desuccinylase inhibitors, dose response, biochemical, fluorescence imaging, cherry-pick, set 5 (AID 720591).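 Also: desuccinylation of succinyl peptide AMC substrate read as fluorescence after trypsin release; potency of inhibitors that lower fluorescence and may act on trypsin instead.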
Test [13] deals with HEK293. The test can be described thus: HEK293T cell cytotoxicity, dose response, cytotoxicity control, ATP luminescence, cherry-pick samples (AID 687005).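 Also: cells exposed to compound for 48 hours.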 Type of test: functional, cell-based. The conditions noted are these: Homo sapiens.
A short description of test [14]: HEK293 Cytotoxicity Assay Measured in Cell-Based System Using Plate Reader - 7071-01_Inhibitor_Dose_CherryPick_Activity_Set2. It counts as functional.
A short description of test [15]: Concentration-dependent survival of SW480 colon cancer line, luminescence detection with CellTiter-Glo, half-maximal inhibitory concentration (AID 1117338). It counts as functional.
The nature of test [16]: RKO cell viability reduction, dose response, CellTiter-Glo luminescence (AID 1117322). It counts as functional.
A short description of test [17]: cytotoxicity toward Colo320 cells – cell-based, CellTiter-Glo luminescence, IC50, dose response (AID 1117334). It counts as functional. The note with it: COLO 320.
A short description of test [18]: CellTiter-Glo luminescent dose response of DLD-1 viability loss (AID 1117352). Type of test: functional.
A short description of test [19]: cytotoxicity toward HT-29 cells – cell-based, CellTiter-Glo luminescence, IC50, dose response (AID 1117330). Type of test: functional.
Test [20] can be described thus: SNU-C1 cell viability reduction, dose response, CellTiter-Glo luminescence (AID 1117323). Type of test: functional, cell-based.
The nature of test [21]: cytotoxicity toward HCT116 cells – cell-based, CellTiter-Glo luminescence, IC50, dose response (AID 1117332). Type of test: functional. The note with it: HCT-116.
The nature of test [22]: HCT116 cell viability decrease, GSK3B pretreatment – CellTiter-Glo, IC50, dose response (AID 1117339). The note with it: HCT-116. It counts as functional.
Test [23] can be described thus: HeLa 4N DNA content increase, dose response, cell-based, IC50 (AID 1117351). It counts as functional.
A short description of test [24]: HeLa 2N DNA content increase, dose response, cell-based, IC50 (AID 1117349). Type of test: functional.

NAD-dependent protein deacylase sirtuin-5, mitochondrial, sequence (Q9NXA8 whole entry): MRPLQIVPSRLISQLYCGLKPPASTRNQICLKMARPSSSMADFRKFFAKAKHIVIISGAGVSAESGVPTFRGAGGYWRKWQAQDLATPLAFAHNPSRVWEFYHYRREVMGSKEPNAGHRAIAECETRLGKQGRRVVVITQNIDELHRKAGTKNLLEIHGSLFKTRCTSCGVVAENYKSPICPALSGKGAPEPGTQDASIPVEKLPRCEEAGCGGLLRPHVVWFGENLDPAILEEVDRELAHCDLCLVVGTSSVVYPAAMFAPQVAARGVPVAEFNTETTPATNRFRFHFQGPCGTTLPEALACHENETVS
Oxysterols receptor LXR-beta, sequence (P55055 whole entry, the tested form may be a part): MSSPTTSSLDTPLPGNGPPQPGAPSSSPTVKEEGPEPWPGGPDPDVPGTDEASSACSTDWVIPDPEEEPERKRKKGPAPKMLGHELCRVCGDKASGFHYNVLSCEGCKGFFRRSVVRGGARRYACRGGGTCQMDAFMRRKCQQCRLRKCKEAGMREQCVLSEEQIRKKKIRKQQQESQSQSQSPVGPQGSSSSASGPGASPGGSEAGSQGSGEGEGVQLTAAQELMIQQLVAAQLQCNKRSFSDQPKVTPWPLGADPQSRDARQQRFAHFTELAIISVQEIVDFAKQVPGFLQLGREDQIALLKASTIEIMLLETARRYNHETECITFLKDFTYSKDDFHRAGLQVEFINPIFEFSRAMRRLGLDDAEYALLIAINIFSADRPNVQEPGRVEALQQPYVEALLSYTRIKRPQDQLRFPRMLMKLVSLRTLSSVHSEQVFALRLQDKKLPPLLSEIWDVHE
fMet-Leu-Phe receptor, sequence (P21462 whole entry): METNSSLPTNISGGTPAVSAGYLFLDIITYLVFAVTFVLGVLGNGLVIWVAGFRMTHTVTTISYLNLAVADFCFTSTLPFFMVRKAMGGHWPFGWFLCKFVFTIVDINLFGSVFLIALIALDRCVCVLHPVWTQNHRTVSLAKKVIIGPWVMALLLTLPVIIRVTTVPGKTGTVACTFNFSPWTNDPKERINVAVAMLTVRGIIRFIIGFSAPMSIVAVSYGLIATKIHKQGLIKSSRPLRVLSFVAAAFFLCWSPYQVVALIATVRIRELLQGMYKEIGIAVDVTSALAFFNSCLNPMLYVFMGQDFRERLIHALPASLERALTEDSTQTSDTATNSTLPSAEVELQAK

With `Cn1ncc2c(Nc3ccc4ccccc4c3)ncnc21`, the EC50 in test [1] is 1.89 µM (active). In test [2], the CC50 was > 40 µM (active).

Turning to `Cc1ccc(CSc2nc3cc[nH]cc-3n2)cc1`, the EC50 is > 67.5 µM (inactive) in “cells”, > 67.5 µM (inactive) in [8], 10.8 µM (active) in test [9] and 7.38 µM (active) in [11]. Besides, the AC50 in test [3] was 2.98 µM (active); in the test with HEK293 [4] it was 1.9 µM (active); in test [5], 26.5 µM (active); in test [6], 31.6 µM (active); in [7] it was 2.93 µM (active); in test [10], > 52 µM (inactive).

For `O=C(NCc1cccnc1)C1c2ccccc2C(=O)N1C1CCCCCCC1` (centres undefined), at fMet-Leu-Phe receptor, the Ki is 40.9 µM (inactive).

As to `O=C(NCC1(N2CCOCC2)CCCCC1)c1cccc(S(=O)(=O)Nc2ccc(F)cc2)c1`, in [12], the AC50 is > 30 µM (inactive).

Turning to `Cc1ccc(C2=NN(C(=O)c3ccc(Br)o3)C(c3ccc(C)cc3)C2)cc1` (centres undefined), the AC50 (in the test on HEK293 [13]; in [14]) was 20.2 µM (active) throughout.

As for `C[C@H](CO)N1C[C@H](C)[C@H](CN(C)Cc2ccc(Cl)c(Cl)c2)Oc2c(NC(=O)Nc3ccccc3)cccc2C1=O`, the half-maximal activity concentration (AC50) (in the test on HEK293 [13]; in [14]) was 18.8 µM (active) in each case.

Turning to `CCN(CC)C(=O)c1cccnc1` [NIKETHAMIDE], the IC50 in [15], in test [16], in test [17], in [18], in [19] and in test [20] was > 20 µM (inactive) each time. Also, the IC50 in test [21] and in test [22] was > 20 µM (inactive) throughout.

As for `CCCN(CCC)C(=O)C(CCC(=O)OCCCN1CCN(CCOC(=O)Cc2c(C)n(C(=O)c3ccc(Cl)cc3)c3ccc(OC)cc23)CC1)NC(=O)c1ccccc1` (centres undefined) [PROGLUMETACIN], the IC50 in test [23] and in [24] was > 10 µM (inactive) each time.

Turning to `COc1ccc(-n2nc(CCC(=O)N(C)O)cc2-c2ccc(Cl)cc2)cc1` [TEPOXALIN], the IC50 is 2.81 µM (active) in [15]; 4.11 µM (active) in test [16]; 0.662 µM (active) in test [17]; 2.08 µM (active) in [18]; 1.75 µM (active) in test [20]; 6.55 µM (inactive) in test [21].
